# Biological target: T1, Cytochrome P450 1B1 (Homo sapiens, UniProt Q16678)
# T1 sequence (Q16678 whole entry): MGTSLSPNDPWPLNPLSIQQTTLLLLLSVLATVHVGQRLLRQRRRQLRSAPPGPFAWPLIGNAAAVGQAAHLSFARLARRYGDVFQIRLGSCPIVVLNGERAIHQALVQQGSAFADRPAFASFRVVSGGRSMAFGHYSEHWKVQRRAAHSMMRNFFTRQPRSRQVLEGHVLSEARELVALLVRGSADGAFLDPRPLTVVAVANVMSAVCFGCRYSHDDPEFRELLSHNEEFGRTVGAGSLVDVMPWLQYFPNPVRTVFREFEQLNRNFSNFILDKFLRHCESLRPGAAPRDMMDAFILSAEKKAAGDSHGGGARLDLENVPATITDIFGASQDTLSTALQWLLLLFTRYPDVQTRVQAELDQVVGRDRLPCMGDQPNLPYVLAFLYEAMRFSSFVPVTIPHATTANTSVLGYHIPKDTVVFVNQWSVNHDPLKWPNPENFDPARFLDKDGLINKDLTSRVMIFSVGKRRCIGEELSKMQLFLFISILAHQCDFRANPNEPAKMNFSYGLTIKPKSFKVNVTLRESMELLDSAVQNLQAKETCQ
# Test: Inhibition of human recombinant CYP1B1 using 7-ethoxyresorufin as substrate in presence of glucose-6-phosphate, glucose-6-phosphate dehydrogenase and NADPH-generating system incubated for 35 mins by fluorometry
# Conditions: not given
row,Compound,IC50
1,COc1cccc(-c2cc(=S)c3ccc4ccccc4c3o2)c1,9.1 nM
2,O=c1cc(-c2ccccc2F)sc2c1ccc1ccccc12,104 nM
3,O=C1C=C(c2ccccc2)S(=O)(=O)c2c1ccc1ccccc21,223 nM
4,Fc1ccccc1-c1cc(=S)c2ccc3ccccc3c2o1,10.6 nM
5,O/N=c1\cc(-c2cccc(Cl)c2)oc2c1ccc1ccccc12,10.4 nM
6,S=c1cc(-c2ccccc2)oc2c1ccc1ccccc12,7.8 nM
7,O=c1cc(-c2ccc(Cl)cc2)sc2c1ccc1ccccc12,51.9 nM
8,COc1cc(-c2cc(=S)c3ccc4ccccc4c3o2)cc(OC)c1OC,18.8 nM
9,O=C1C=C(c2cccc(Cl)c2)S(=O)(=O)c2c1ccc1ccccc21,250 nM
10,CN1CCN(c2cc(Cl)cc(-c3cc(=O)c4ccc5ccccc5c4o3)c2)CC1,47.7 nM

# The remaining lines, values ahead:
row,IC50,Compound
1,4.1 nM,CN(C)c1cccc(-c2cc(=O)c3ccc4ccccc4c3o2)c1
2,48.4 nM,O=c1cc(-c2ccc3ccccc3c2)oc2c1ccc1ccccc12
3,3.8 nM,COc1cccc(-c2cc(=O)c3ccc4ccccc4c3o2)c1
4,2.7 nM,O=c1cc(-c2ccc(F)cc2)oc2c1ccc1ccccc12
5,8 nM,O/N=c1\cc(-c2ccc(Cl)cc2)oc2c1ccc1ccccc12
6,13.3 nM,Fc1ccc(-c2cc(=S)c3ccc4ccccc4c3o2)cc1
7,21.6 nM,O=c1cc(-c2ccccc2Cl)oc2c1ccc1ccccc12
8,4.2 nM,O=c1cc(-c2ccc(Cl)cc2)oc2c1ccc1ccccc12
9,14.8 nM,O=c1cc(-c2cccc(O)c2)oc2c1ccc1ccccc12

# Biological target: T2, Cytochrome P450 1A1 (Homo sapiens, UniProt P04798)
# T2 sequence (P04798 whole entry): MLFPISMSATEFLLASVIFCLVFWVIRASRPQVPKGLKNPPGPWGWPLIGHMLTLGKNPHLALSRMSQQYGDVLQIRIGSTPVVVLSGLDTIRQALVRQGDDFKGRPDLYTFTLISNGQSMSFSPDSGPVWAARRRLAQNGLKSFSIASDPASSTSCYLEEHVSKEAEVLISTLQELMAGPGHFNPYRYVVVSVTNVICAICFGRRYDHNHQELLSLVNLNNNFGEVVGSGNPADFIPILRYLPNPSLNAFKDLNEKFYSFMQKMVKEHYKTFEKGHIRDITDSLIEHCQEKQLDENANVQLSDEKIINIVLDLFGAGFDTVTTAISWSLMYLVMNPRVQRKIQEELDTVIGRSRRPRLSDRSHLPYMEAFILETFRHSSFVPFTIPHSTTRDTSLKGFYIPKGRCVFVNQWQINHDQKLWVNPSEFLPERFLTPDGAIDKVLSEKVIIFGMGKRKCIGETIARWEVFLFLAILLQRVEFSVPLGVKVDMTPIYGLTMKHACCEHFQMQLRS
# Test: Inhibition of human recombinant CYP1A1 using 7-ethoxyresorufin as substrate in presence of glucose-6-phosphate, glucose-6-phosphate dehydrogenase and NADPH-generating system incubated for 15 mins by fluorometry
# Type: ADME
# Conditions: not given
row,Compound,IC50
1,COc1cccc(-c2cc(=S)c3ccc4ccccc4c3o2)c1,72.8 nM
2,O=c1cc(-c2ccccc2F)sc2c1ccc1ccccc12,84.6 nM
3,O=C1C=C(c2ccccc2)S(=O)(=O)c2c1ccc1ccccc21,129 nM
4,Fc1ccccc1-c1cc(=S)c2ccc3ccccc3c2o1,31.9 nM
5,O/N=c1\cc(-c2cccc(Cl)c2)oc2c1ccc1ccccc12,94.9 nM
6,S=c1cc(-c2ccccc2)oc2c1ccc1ccccc12,65.4 nM
7,O=c1cc(-c2ccc(Cl)cc2)sc2c1ccc1ccccc12,9 nM
8,COc1cc(-c2cc(=S)c3ccc4ccccc4c3o2)cc(OC)c1OC,28.2 nM
9,O=C1C=C(c2cccc(Cl)c2)S(=O)(=O)c2c1ccc1ccccc21,> 1000 nM
10,CN1CCN(c2cc(Cl)cc(-c3cc(=O)c4ccc5ccccc5c4o3)c2)CC1,37.9 nM

# More lines, now with the values ahead:
row,IC50,Compound
1,9.6 nM,CN(C)c1cccc(-c2cc(=O)c3ccc4ccccc4c3o2)c1
2,46.4 nM,O=c1cc(-c2ccc3ccccc3c2)oc2c1ccc1ccccc12
3,35.8 nM,COc1cccc(-c2cc(=O)c3ccc4ccccc4c3o2)c1
4,6.7 nM,O=c1cc(-c2ccc(F)cc2)oc2c1ccc1ccccc12
5,44.4 nM,O/N=c1\cc(-c2ccc(Cl)cc2)oc2c1ccc1ccccc12
6,12.3 nM,Fc1ccc(-c2cc(=S)c3ccc4ccccc4c3o2)cc1
7,228 nM,O=c1cc(-c2ccccc2Cl)oc2c1ccc1ccccc12
8,4.3 nM,O=c1cc(-c2ccc(Cl)cc2)oc2c1ccc1ccccc12
9,53.1 nM,O=c1cc(-c2cccc(O)c2)oc2c1ccc1ccccc12

# Biological target: T3, Cytochrome P450 1A2 (Homo sapiens, UniProt P05177)
# T3 sequence (P05177 whole entry): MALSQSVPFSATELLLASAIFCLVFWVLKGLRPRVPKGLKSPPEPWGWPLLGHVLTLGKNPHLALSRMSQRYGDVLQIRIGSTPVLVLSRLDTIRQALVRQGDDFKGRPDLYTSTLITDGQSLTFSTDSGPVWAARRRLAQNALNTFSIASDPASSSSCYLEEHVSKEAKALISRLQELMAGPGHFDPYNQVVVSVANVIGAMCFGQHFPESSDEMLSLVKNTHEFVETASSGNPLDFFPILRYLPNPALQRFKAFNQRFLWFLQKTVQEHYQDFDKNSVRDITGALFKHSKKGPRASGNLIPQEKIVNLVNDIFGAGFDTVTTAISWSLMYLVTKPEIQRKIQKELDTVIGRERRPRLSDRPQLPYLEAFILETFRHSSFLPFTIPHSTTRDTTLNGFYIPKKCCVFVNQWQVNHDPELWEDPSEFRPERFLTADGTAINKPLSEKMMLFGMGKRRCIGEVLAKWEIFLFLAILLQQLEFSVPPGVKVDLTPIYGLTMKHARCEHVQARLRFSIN
# Test: Inhibition of human recombinant CYP1A2 using 7-ethoxyresorufin as substrate in presence of glucose-6-phosphate, glucose-6-phosphate dehydrogenase and NADPH-generating system incubated for 50 mins by fluorometry
# Type: ADME
# Conditions: not given
row,Compound,IC50
1,COc1cccc(-c2cc(=S)c3ccc4ccccc4c3o2)c1,305 nM
2,O=c1cc(-c2ccccc2F)sc2c1ccc1ccccc12,582 nM
3,O=C1C=C(c2ccccc2)S(=O)(=O)c2c1ccc1ccccc21,170 nM
4,Fc1ccccc1-c1cc(=S)c2ccc3ccccc3c2o1,51.8 nM
5,O/N=c1\cc(-c2cccc(Cl)c2)oc2c1ccc1ccccc12,804 nM
6,S=c1cc(-c2ccccc2)oc2c1ccc1ccccc12,179 nM
7,O=c1cc(-c2ccc(Cl)cc2)sc2c1ccc1ccccc12,212 nM
8,COc1cc(-c2cc(=S)c3ccc4ccccc4c3o2)cc(OC)c1OC,> 1000 nM
9,O=C1C=C(c2cccc(Cl)c2)S(=O)(=O)c2c1ccc1ccccc21,699 nM
10,CN1CCN(c2cc(Cl)cc(-c3cc(=O)c4ccc5ccccc5c4o3)c2)CC1,> 1000 nM

# Second part, the molecule after the results:
row,IC50,Compound
1,183 nM,CN(C)c1cccc(-c2cc(=O)c3ccc4ccccc4c3o2)c1
2,> 1000 nM,O=c1cc(-c2ccc3ccccc3c2)oc2c1ccc1ccccc12
3,178 nM,COc1cccc(-c2cc(=O)c3ccc4ccccc4c3o2)c1
4,12.1 nM,O=c1cc(-c2ccc(F)cc2)oc2c1ccc1ccccc12
5,75.2 nM,O/N=c1\cc(-c2ccc(Cl)cc2)oc2c1ccc1ccccc12
6,42.8 nM,Fc1ccc(-c2cc(=S)c3ccc4ccccc4c3o2)cc1
7,113 nM,O=c1cc(-c2ccccc2Cl)oc2c1ccc1ccccc12
8,10.6 nM,O=c1cc(-c2ccc(Cl)cc2)oc2c1ccc1ccccc12
9,91.5 nM,O=c1cc(-c2cccc(O)c2)oc2c1ccc1ccccc12

# Species on record: Homo sapiens
# Test: Selectivity index, ratio of IC50 for human recombinant CYP1A1 to IC50 for human recombinant CYP1B1 using 7-ethoxyresorufin as substrate in presence of glucose-6-phosphate, glucose-6-phosphate dehydrogenase and NADPH-generating system by fluorometry
# Conditions: not given
row,Compound,Ratio IC50
1,COc1cccc(-c2cc(=S)c3ccc4ccccc4c3o2)c1,8
2,O=c1cc(-c2ccccc2F)sc2c1ccc1ccccc12,0.8
3,O=C1C=C(c2ccccc2)S(=O)(=O)c2c1ccc1ccccc21,0.6
4,Fc1ccccc1-c1cc(=S)c2ccc3ccccc3c2o1,3
5,O/N=c1\cc(-c2cccc(Cl)c2)oc2c1ccc1ccccc12,9.1
6,S=c1cc(-c2ccccc2)oc2c1ccc1ccccc12,8.4
7,O=c1cc(-c2ccc(Cl)cc2)sc2c1ccc1ccccc12,0.2
8,COc1cc(-c2cc(=S)c3ccc4ccccc4c3o2)cc(OC)c1OC,1.5
9,O=C1C=C(c2cccc(Cl)c2)S(=O)(=O)c2c1ccc1ccccc21,> 4
10,CN1CCN(c2cc(Cl)cc(-c3cc(=O)c4ccc5ccccc5c4o3)c2)CC1,0.8

# More lines, now with the values ahead:
row,Ratio IC50,Compound
1,2.3,CN(C)c1cccc(-c2cc(=O)c3ccc4ccccc4c3o2)c1
2,1,O=c1cc(-c2ccc3ccccc3c2)oc2c1ccc1ccccc12
3,9.4,COc1cccc(-c2cc(=O)c3ccc4ccccc4c3o2)c1
4,2.5,O=c1cc(-c2ccc(F)cc2)oc2c1ccc1ccccc12
5,5.6,O/N=c1\cc(-c2ccc(Cl)cc2)oc2c1ccc1ccccc12
6,0.9,Fc1ccc(-c2cc(=S)c3ccc4ccccc4c3o2)cc1
7,10.6,O=c1cc(-c2ccccc2Cl)oc2c1ccc1ccccc12
8,1,O=c1cc(-c2ccc(Cl)cc2)oc2c1ccc1ccccc12
9,3.6,O=c1cc(-c2cccc(O)c2)oc2c1ccc1ccccc12

# Species on record: Homo sapiens
# Test: Selectivity index, ratio of IC50 for human recombinant CYP1A2 to IC50 for human recombinant CYP1B1 using 7-ethoxyresorufin as substrate in presence of glucose-6-phosphate, glucose-6-phosphate dehydrogenase and NADPH-generating system by fluorometry
# Conditions: not given
row,Compound,Ratio IC50
1,COc1cccc(-c2cc(=S)c3ccc4ccccc4c3o2)c1,33.5
2,O=c1cc(-c2ccccc2F)sc2c1ccc1ccccc12,5.6
3,O=C1C=C(c2ccccc2)S(=O)(=O)c2c1ccc1ccccc21,0.8
4,Fc1ccccc1-c1cc(=S)c2ccc3ccccc3c2o1,4.9
5,O/N=c1\cc(-c2cccc(Cl)c2)oc2c1ccc1ccccc12,77.3
6,S=c1cc(-c2ccccc2)oc2c1ccc1ccccc12,22.9
7,O=c1cc(-c2ccc(Cl)cc2)sc2c1ccc1ccccc12,4
8,COc1cc(-c2cc(=S)c3ccc4ccccc4c3o2)cc(OC)c1OC,> 53.2
9,O=C1C=C(c2cccc(Cl)c2)S(=O)(=O)c2c1ccc1ccccc21,2.8

# Now from value to molecule:
row,Ratio IC50,Compound
1,44.7,CN(C)c1cccc(-c2cc(=O)c3ccc4ccccc4c3o2)c1
2,> 20.7,O=c1cc(-c2ccc3ccccc3c2)oc2c1ccc1ccccc12
3,46.8,COc1cccc(-c2cc(=O)c3ccc4ccccc4c3o2)c1
4,4.5,O=c1cc(-c2ccc(F)cc2)oc2c1ccc1ccccc12
5,9.4,O/N=c1\cc(-c2ccc(Cl)cc2)oc2c1ccc1ccccc12
6,3.2,Fc1ccc(-c2cc(=S)c3ccc4ccccc4c3o2)cc1
7,5.2,O=c1cc(-c2ccccc2Cl)oc2c1ccc1ccccc12
8,2.5,O=c1cc(-c2ccc(Cl)cc2)oc2c1ccc1ccccc12
9,6.2,O=c1cc(-c2cccc(O)c2)oc2c1ccc1ccccc12

# Biological target: T1, Cytochrome P450 1B1
# Test: Potency index, ratio of IC50 for ANF to IC50 for test compound for inhibition of human recombinant CYP1B1 using 7-ethoxyresorufin as substrate in presence of glucose-6-phosphate, glucose-6-phosphate dehydrogenase and NADPH-generating system incubated for 35 mins by fluorometry
# Conditions: read-out: Ratio IC50
row,Compound,selectivity ratio at 35 min
1,CN1CCN(c2cc(Cl)cc(-c3cc(=O)c4ccc5ccccc5c4o3)c2)CC1,0.12

# Reference: ChEMBL document CHEMBL4376853, “Synthesis and structure-activity relationship studies of α-naphthoflavone derivatives as CYP1B1 inhibitors” (Eur J Med Chem, 2020)
